Data taken from US7521396B2, “Substituted (thioxo)carbonylaminophenyluracils” (Bayer CropScience AG, priority 2002, dated 2009).
Read-outs that look alike come from different tables or passages of the source. Marks after values point to notes of the source that are not given here.

Experiments:
[1] = tested on: weeds; assay: Post-emergence test (Example B), damage to weeds; format: in vivo; conditions: test plants of 5-15 cm sprayed, rated after three weeks
Method: (§1) To produce a suitable preparation of active compound, 1 part by weight of active compound is mixed with the stated amount of solvent, the stated amount of emulsifier is added and the concentrate is diluted with water to the desired concentration.
Test plants of a height of 5-15 cm are sprayed with the preparation of active compound such that the particular amounts of active compound desired are applied per unit area. The concentration of the spray liquor is chosen such that the particular amounts of active compound desired are applied in 1000 l of water/ha.
After three weeks, the degree of damage to the plants is rated in % damage in comparison to the development of the untreated control.
The figures denote: • 0%=no effect (like untreated control) • 100%=total destruction

[2] = tested on: weeds; assay: Pre-emergence test (Example A), damage to weeds; format: in vivo; conditions: soil sprayed 24 hours after sowing, rated after three weeks
Method: as §1
Seeds of the test plants are sown in normal soil. After 24 hours, the soil is sprayed with the preparation of active compound such that the particular amount of active compound desired is applied per unit area. The concentration of active compound in the spray liquor is chosen such that the particular amount of active compound desired is applied in 1000 liters of water per hectare.
After three weeks, the degree of damage to the plants is rated in % damage in comparison to the development of the untreated control. The figures denote: • 0%=no effect (like untreated control) • 100%=total destruction

[3] = logP by HPLC on reversed-phase column (C 18), EEC Directive 79/831 Annex V.A8; format: physicochemical

logP [3] | Structure (SMILES) | activity against weeds (degree of damage) [1] | activity against weeds (degree of damage) [2] | logP ([3]; a) acidic range: 0.1% aqueous phosphoric acid, acetonitrile gradient, 43° C.)
logP = 2.67^a) | CON(C)C(=O)Nc1cc(-n2c(=O)cc(C(F)(F)F)n(C)c2=O)c(F)cc1Br [Example 8] | strong activity | strong activity | –
logP = 2.55^a) | Cn1c(C(F)(F)F)cc(=O)n(-c2cc(NC(=O)N3CCOC3=O)c(Cl)cc2F)c1=O [Example 25] | strong activity | strong activity | –
logP = 2.59^a) | Cn1c(C(F)(F)F)cc(=O)n(-c2cc(NC(=O)N3CCOC3=O)c(Br)cc2F)c1=O [Example 30] | strong activity | strong activity | –
logP = 3.06^a) | CCOC(=O)C(C)OC(=O)Nc1cc(-n2c(=O)cc(C(F)(F)F)n(C)c2=O)c(F)cc1Br (stereo not drawn) [Example 10] | strong activity | strong activity | –
logP = 2.88^a) | CN(Cc1ccco1)C(=O)Nc1cc(-n2c(=O)cc(C(F)(F)F)n(C)c2=O)c(F)cc1Cl [Example 44] | strong activity | strong activity | –
logP = 2.59^a) | Cn1ccsc1=NC(=O)Nc1cc(-n2c(=O)cc(C(F)(F)F)n(C)c2=O)c(F)cc1Br [Example 31] | strong activity | strong activity | –
– | Cn1c(C(F)(F)F)cc(=O)n(-c2cc(NC(=O)NCCC#N)c(Br)cc2F)c1=O [Example 20] | – | strong activity | logP = 2.08^a)
logP = 2.60^a) | CON(C)C(=O)Nc1cc(-n2c(=O)cc(C(F)(F)F)n(C)c2=O)c(F)cc1Cl [Example 21] | strong activity | strong activity | –
logP = 2.58^a) | Cn1c(C(F)(F)F)cc(=O)n(-c2cc(NC(=O)N3CCCO3)c(Cl)cc2F)c1=O [Example 24] | strong activity | strong activity | –
logP = 2.51^a) | Cn1ccsc1=NC(=O)Nc1cc(-n2c(=O)cc(C(F)(F)F)n(C)c2=O)c(F)cc1Cl [Example 32] | strong activity | strong activity | –
logP = 2.95^a) | CN(Cc1ccco1)C(=O)Nc1cc(-n2c(=O)cc(C(F)(F)F)n(C)c2=O)c(F)cc1Br [Example 37] | strong activity | strong activity | –
logP = 2.55^a) | CN1CCN(C(=O)Nc2cc(-n3c(=O)cc(C(F)(F)F)n(C)c3=O)c(F)cc2Br)C1=O [Example 5] | strong activity | strong activity | –
logP = 2.79^a) | CN1CCCN(C(=O)Nc2cc(-n3c(=O)cc(C(F)(F)F)n(C)c3=O)c(F)cc2Br)C1=O [Example 7] | strong activity | strong activity | –
logP = 2.63^a) | Cn1c(C(F)(F)F)cc(=O)n(-c2cc(NC(=O)N3CCCO3)c(Br)cc2F)c1=O [Example 28] | strong activity | strong activity | –
logP = 2.85^a) | CCN1CCN(C(=O)Nc2cc(-n3c(=O)cc(C(F)(F)F)n(C)c3=O)c(F)cc2Br)C1=O [Example 6] | strong activity | strong activity | –
logP = 2.45^a) | CCONC(=O)Nc1cc(-n2c(=O)cc(C(F)(F)F)n(C)c2=O)c(F)cc1Cl [Example 27] | strong activity | strong activity | –

Structure (SMILES) | logP [3] | activity against weeds (degree of damage) [1] | activity against weeds (degree of damage) [2] | logP ([3]; a) acidic range: 0.1% aqueous phosphoric acid, acetonitrile gradient, 43° C.)
C=CCONC(=O)Nc1cc(-n2c(=O)cc(C(F)(F)F)n(C)c2=O)c(F)cc1Br [Example 26] | logP = 2.67^a) | strong activity | strong activity | –
CONC(=O)Nc1cc(-n2c(=O)cc(C(F)(F)F)n(C)c2=O)c(F)cc1Br [Example 9] | logP = 2.19^a) | strong activity | strong activity | –
CCCN(C(=O)Nc1cc(-n2c(=O)cc(C(F)(F)F)n(C)c2=O)c(F)cc1Cl)C(C)C [Example 45] | logP = 2.58^a) | strong activity | strong activity | –
Cn1c(C(F)(F)F)cc(=O)n(-c2cc(NC(=O)N3CCOCC3)c(Cl)cc2F)c1=O [Example 49] | logP = 2.11^a) | – | strong activity | –
C=CCONC(=O)Nc1cc(-n2c(=O)cc(C(F)(F)F)n(C)c2=O)c(F)cc1Cl [Example 22] | logP = 2.60^a) | – | strong activity | –
Cn1c(C(F)(F)F)cc(=O)n(-c2cc(NC(=O)NC3=NCCS3)c(Br)cc2F)c1=O [Example 39] | logP = 2.16^a) | strong activity | strong activity | –
CCCN(C(=O)Nc1cc(-n2c(=O)cc(C(F)(F)F)n(C)c2=O)c(F)cc1Br)C(C)C [Example 38] | logP = 2.79^a) | strong activity | strong activity | –
Cn1c(C(F)(F)F)cc(=O)n(-c2cc(NC(=O)NC3=NCCS3)c(Cl)cc2F)c1=O [Example 48] | logP = 2.11^a) | strong activity | strong activity | –
